In PubChem BioAssay (NCI):
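1) Cells in 96-well plates. 2) Compound, 48 h, 5 concentrations. 3) Linear interpolation between surrounding doses. 4) Unreached endpoint = highest concentration. At the TGI there is no net growth.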

What was measured:
Test in all cases: NCI tumour cell line growth inhibition, 48 h
[1] = tested on: CAKI-1 renal
[2] = tested on: CCRF-CEM leukemia
[3] = tested on: HCT-15 colon
[4] = tested on: HL-60(TB) leukemia
[5] = tested on: HT29 colon
[6] = tested on: IGROV1 ovarian
[7] = tested on: K-562 leukemia
[8] = tested on: NCI-H23 lung
[9] = tested on: SF-295 CNS
[10] = tested on: UACC-257 melanoma

Compound | TGI [1] | TGI [2] | TGI [3] | TGI [4] | TGI [5] | TGI [6] | TGI [7] | TGI [8] | TGI [9] | TGI [10]
COc1ccc(-c2c(-c3ccccc3)c(C)c3ccccn23)cc1 | > 100 µM | > 100 µM | > 100 µM | > 100 µM | > 100 µM | > 100 µM | > 100 µM | > 100 µM | > 100 µM | > 100 µM
O=C1NC(Nc2ccccc2)=N/C1=C\c1c(Cl)cccc1Cl | > 100 µM | 54.1 µM | > 100 µM | > 100 µM | > 100 µM | 62.4 µM | > 100 µM | > 100 µM | > 100 µM | 78.1 µM
COc1ccc2oc(S(=O)(=O)N3CC(CCl)c4ccc(N)cc43)cc2c1 (stereo not given) | > 86.3 µM | 12.7 µM | > 23.9 µM | 0.454 µM | 10.1 µM | > 34.1 µM | > 60.1 µM | > 100 µM | > 100 µM | > 100 µM
O=C(Nc1cccc(F)c1)c1cc2ccc(O)cc2oc1=Nc1cccc(F)c1 | > 100 µM | 6.72 µM | 60.1 µM | 10.1 µM | > 100 µM | 5.73 µM | > 100 µM | 6.12 µM | > 100 µM | > 100 µM
N#[N+]c1c([O-])c2ccccc2c2ccccc12 | > 100 µM | > 100 µM | > 100 µM | > 100 µM | > 100 µM | > 100 µM | > 100 µM | > 100 µM | > 100 µM | > 100 µM
CC12CCCCC1=C(F)C(F)(F)S2 (stereo not given) | 48.9 µM | 22.7 µM | 76.7 µM | 15.3 µM | 56.5 µM | > 100 µM | 59.2 µM | > 100 µM | > 71.4 µM | 51.6 µM
CC(C)(C)C(=O)Oc1ccc(/C=C/C(=O)c2ccc(OC(=O)C(C)(C)C)cc2)cc1 | 96.7 µM | 20.2 µM | > 100 µM | 75.5 µM | > 100 µM | > 100 µM | 86.7 µM | > 100 µM | > 100 µM | > 100 µM
CCOP(=O)(OCC)/C(C#N)=C/c1ccccn1 | > 100 µM | > 100 µM | > 100 µM | > 100 µM | > 100 µM | > 100 µM | > 100 µM | > 100 µM | > 100 µM | > 100 µM
N#Cc1c(Cl)c2cccnc2n2c1nc1ccccc12 | 3.71 µM | 4.02 µM | 3.82 µM | 3.78 µM | 3.61 µM | 4.94 µM | 6.05 µM | 4.28 µM | 35.9 µM | 7.5 µM
O=c1[nH]nc(-c2ccccc2)n1/N=C/c1cccc([N+](=O)[O-])c1 | > 100 µM | > 100 µM | > 100 µM | > 100 µM | > 100 µM | > 100 µM | > 100 µM | > 100 µM | > 100 µM | > 100 µM
Cn1c(=Nc2ccc(Cl)cc2)sc2ccccc21 | > 100 µM | > 100 µM | 65.7 µM | > 100 µM | > 100 µM | > 100 µM | > 100 µM | > 100 µM | > 100 µM | > 100 µM
C[C@H]1C2Cc3cc(O)ccc3[C@@]1(C)CCN2CCc1ccc(N)cc1 | > 100 µM | 69 µM | 33.3 µM | > 100 µM | 31.9 µM | 66.3 µM | 52.6 µM | > 100 µM | 53.7 µM | 36.5 µM
O=C(c1ccccc1)N1C(=O)N(c2ccccc2)C(=Nc2ccccc2)C1=Nc1ccccc1 | > 100 µM | > 100 µM | > 100 µM | > 100 µM | > 100 µM | > 100 µM | > 100 µM | > 100 µM | > 100 µM | > 100 µM
COC(=O)c1c(CC(Cc2ccc3c(c2)CCCC3)C(=O)O)ccc2c1CCCC2 (stereo not given) | > 100 µM | > 100 µM | 33.8 µM | 46.5 µM | > 100 µM | > 100 µM | > 100 µM | > 100 µM | > 100 µM | 33.3 µM
CCOC(=O)C(=CNc1ccc(N(C2=NCC(C)S2)c2ccc(F)c(Cl)c2)cc1)C(=O)OCC (stereo not given) | > 100 µM | 30.1 µM | 36.1 µM | 52.9 µM | 34.7 µM | 44.5 µM | > 100 µM | 33.9 µM | 64.2 µM | 34 µM
CC(=O)O[C@H]1CC[C@@]2(C)C(=CC[C@@H]3[C@@H]2CC[C@]2(C)c4c(n[nH]c4C)C[C@@H]32)C1 | 32.5 µM | 25.1 µM | 34.2 µM | 28.4 µM | 23.5 µM | 38.8 µM | > 100 µM | 34.5 µM | 37.2 µM | 33.2 µM
Cc1ccc(S(=O)C[C@](NC(=O)OCc2ccccc2)(Sc2ccccc2)C(F)F)cc1 (stereo not given in full) | 50.4 µM | 5.56 µM | 40.3 µM | 24.9 µM | 31.1 µM | 22.7 µM | > 100 µM | 36.4 µM | 34.4 µM | 31.5 µM
